Test results from article PMC3314994, “Inhibitors of human histone deacetylase with potent activity against the African trypanosome Trypanosoma brucei” (Bioorganic & Medicinal Chemistry Letters, 2012).

Key:
Trypanosoma brucei (BSF) = assay: Growth inhibition of cultured bloodstream form T. brucei; assay type: cell-based, Trypanosoma brucei (strain 427); conditions: Trypanosoma brucei, cultured bloodstream form, strain 427, triplicate; for IC50: read-out: Trypanosoma brucei (BSF) IC50 ± SD; for IC90: read-out: Trypanosoma brucei (BSF) IC90 ± SD
Procedure: Treatment of parasites with micromolar levels of these inhibitors could result in cell death within 4 h (Fig. 1).
[30] Growth inhibitory properties against cultured bloodstream form T. brucei were determined as described previously.[29] Experiments were performed in triplicate and data are presented as ±SD.

HDAC (FDL_HELA) = assay: Histone deacetylase activity in HeLa cell lysates (fluorescent assay kit); assay type: biochemical, Human; conditions: lysed HeLa cells; read-out: HDAC (FDL_HELA) IC50 ± SD
Procedure: (§1) The compounds from the different structural subclasses were all active as HDAC inhibitors, measured in an assay of enzymes in HeLa cell lysates.[23,24] HeLa cells express multiple HDACs, including HDAC 1, 2, 3, 4, and 8.[25–27] […] To further characterise the compounds with respect to HDAC selectivity, we determined their inhibitory properties against recombinant expressed human HDACs (rhHDAC 1–4, 6–9).[28]
[24] Histone deacetylase activity was determined in lysed Human cervix epithelial cancer HeLa cells. To determine the IC50 of test compound a commercially available fluorescent assay kit was used employing an acetylated enzyme substrate.[23]

rhHDAC 1 = rhHDAC 1 (Homo sapiens, UniProt Q13547); assay: Inhibition of recombinant human HDAC isoforms; assay type: biochemical; conditions: mean ± SD, triplicate per plate, min two plates; read-out: ED50 rhHDAC 1
Description: as §1

rhHDAC 4 = rhHDAC 4 (Homo sapiens, UniProt P56524); assay: Inhibition of recombinant human HDAC isoforms; assay type: biochemical; conditions: mean ± SD, triplicate per plate, min two plates; read-out: ED50 rhHDAC 4
Description: as §1

rhHDAC 2 = rhHDAC 2 (Homo sapiens, UniProt Q92769); assay: Inhibition of recombinant human HDAC isoforms; assay type: biochemical; conditions: mean ± SD, triplicate per plate, min two plates; read-out: ED50 rhHDAC 2
Description: as §1

rhHDAC 6 = molecular target: T1, rhHDAC 6 (Homo sapiens, UniProt Q9UBN7); assay: Inhibition of recombinant human HDAC isoforms; assay type: biochemical; conditions: mean ± SD, triplicate per plate, min two plates; read-out: ED50 rhHDAC 6
T1 sequence (Q9UBN7 1-1215): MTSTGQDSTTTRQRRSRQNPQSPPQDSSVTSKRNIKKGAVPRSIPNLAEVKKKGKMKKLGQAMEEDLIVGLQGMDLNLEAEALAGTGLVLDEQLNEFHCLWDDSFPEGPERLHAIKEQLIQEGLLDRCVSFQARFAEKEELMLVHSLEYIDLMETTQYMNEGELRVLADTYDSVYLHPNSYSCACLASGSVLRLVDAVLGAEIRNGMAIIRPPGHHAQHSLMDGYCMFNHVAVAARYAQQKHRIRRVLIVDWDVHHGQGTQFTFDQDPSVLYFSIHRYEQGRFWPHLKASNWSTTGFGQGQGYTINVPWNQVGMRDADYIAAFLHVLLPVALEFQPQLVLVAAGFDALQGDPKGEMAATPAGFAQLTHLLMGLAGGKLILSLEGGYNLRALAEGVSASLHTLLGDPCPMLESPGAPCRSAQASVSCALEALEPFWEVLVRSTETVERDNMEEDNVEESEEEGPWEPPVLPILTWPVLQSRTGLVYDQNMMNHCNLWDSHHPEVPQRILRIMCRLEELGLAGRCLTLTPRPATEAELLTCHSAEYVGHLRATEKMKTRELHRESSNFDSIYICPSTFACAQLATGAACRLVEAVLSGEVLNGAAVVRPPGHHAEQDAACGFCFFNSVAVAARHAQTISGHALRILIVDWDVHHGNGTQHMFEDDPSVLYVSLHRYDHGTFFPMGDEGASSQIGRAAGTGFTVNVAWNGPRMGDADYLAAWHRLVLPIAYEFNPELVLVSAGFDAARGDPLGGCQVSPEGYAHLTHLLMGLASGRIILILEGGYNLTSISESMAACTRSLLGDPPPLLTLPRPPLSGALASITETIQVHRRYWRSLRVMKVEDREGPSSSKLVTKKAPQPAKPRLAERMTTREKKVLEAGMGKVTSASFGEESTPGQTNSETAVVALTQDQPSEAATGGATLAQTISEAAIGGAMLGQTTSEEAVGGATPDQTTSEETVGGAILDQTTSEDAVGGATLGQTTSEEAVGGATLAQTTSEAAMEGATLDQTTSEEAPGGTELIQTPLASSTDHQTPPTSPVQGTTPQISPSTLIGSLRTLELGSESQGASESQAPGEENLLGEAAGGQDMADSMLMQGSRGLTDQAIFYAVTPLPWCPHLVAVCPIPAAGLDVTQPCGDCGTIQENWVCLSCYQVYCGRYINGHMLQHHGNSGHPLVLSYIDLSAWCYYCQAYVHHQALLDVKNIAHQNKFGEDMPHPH
Description: as §1

rhHDAC 9 = rhHDAC 9 (Homo sapiens, UniProt Q9UKV0); assay: Inhibition of recombinant human HDAC isoforms; assay type: biochemical; conditions: mean ± SD, triplicate per plate, min two plates; read-out: ED50 rhHDAC 9
Description: as §1

rhHDAC 3 = rhHDAC 3 (Homo sapiens, UniProt O15379); assay: Inhibition of recombinant human HDAC isoforms; assay type: biochemical; conditions: mean ± SD, triplicate per plate, min two plates; read-out: ED50 rhHDAC 3
Description: as §1

rhHDAC 8 = molecular target: T2, rhHDAC 8 (Homo sapiens, UniProt Q9BY41); assay: Inhibition of recombinant human HDAC isoforms; assay type: biochemical; conditions: mean ± SD, triplicate per plate, min two plates; read-out: ED50 rhHDAC 8
T2 sequence (Q9BY41 1-377): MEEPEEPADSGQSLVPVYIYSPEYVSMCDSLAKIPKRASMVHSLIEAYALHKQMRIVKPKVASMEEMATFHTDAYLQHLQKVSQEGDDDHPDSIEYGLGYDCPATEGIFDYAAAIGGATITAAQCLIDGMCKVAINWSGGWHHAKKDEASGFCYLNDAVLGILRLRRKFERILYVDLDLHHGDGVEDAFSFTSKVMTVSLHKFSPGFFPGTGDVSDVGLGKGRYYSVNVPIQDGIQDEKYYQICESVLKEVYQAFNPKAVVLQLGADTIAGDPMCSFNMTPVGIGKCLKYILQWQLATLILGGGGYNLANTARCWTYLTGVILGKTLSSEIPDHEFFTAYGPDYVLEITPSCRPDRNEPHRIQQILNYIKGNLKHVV
Description: as §1

Sequence of rhHDAC 9 (Q9UKV0 whole entry, canonical isoform): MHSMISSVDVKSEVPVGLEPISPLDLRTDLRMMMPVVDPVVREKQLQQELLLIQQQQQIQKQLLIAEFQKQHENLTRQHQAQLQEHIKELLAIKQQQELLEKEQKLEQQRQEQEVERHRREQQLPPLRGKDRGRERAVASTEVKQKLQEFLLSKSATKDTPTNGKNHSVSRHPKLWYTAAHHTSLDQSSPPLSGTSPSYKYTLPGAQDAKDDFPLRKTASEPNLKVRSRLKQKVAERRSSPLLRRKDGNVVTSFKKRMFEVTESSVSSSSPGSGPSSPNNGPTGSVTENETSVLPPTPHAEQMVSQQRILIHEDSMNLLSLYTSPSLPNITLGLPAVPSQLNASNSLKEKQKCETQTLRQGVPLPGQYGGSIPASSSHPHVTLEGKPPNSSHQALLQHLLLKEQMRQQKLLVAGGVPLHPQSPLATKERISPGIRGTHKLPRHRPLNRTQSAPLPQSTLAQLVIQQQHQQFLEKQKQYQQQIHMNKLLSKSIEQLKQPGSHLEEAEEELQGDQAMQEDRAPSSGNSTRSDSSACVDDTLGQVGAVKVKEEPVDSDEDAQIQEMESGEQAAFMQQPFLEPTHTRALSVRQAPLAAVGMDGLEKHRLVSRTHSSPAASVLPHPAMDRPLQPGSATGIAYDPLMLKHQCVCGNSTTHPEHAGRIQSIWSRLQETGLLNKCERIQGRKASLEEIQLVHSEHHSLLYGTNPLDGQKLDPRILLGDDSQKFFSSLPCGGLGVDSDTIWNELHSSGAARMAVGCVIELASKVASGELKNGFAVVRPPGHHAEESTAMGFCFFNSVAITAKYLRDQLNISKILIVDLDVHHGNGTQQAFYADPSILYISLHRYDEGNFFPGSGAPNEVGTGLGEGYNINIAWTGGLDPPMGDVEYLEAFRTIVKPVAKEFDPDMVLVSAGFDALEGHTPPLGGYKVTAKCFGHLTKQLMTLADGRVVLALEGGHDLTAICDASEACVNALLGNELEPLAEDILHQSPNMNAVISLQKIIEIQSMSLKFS
Sequence of rhHDAC 3 (O15379 whole entry, canonical isoform): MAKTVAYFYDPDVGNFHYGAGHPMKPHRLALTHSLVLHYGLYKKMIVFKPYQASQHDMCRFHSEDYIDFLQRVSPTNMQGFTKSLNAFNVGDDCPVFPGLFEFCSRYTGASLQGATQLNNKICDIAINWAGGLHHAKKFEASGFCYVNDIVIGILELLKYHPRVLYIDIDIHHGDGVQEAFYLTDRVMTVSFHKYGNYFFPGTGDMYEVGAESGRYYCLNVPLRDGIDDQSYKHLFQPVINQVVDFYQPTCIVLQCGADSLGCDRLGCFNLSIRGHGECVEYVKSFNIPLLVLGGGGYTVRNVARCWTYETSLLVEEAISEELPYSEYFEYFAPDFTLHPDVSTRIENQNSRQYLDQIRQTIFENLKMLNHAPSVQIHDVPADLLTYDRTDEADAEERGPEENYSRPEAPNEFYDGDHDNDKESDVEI
Sequence of rhHDAC 3 (Q9Y618 395-489 partner limits assumed): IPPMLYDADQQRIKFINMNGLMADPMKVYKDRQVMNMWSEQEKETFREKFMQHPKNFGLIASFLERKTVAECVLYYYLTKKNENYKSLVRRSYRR
Sequence of rhHDAC 1 (Q13547 whole entry, canonical isoform): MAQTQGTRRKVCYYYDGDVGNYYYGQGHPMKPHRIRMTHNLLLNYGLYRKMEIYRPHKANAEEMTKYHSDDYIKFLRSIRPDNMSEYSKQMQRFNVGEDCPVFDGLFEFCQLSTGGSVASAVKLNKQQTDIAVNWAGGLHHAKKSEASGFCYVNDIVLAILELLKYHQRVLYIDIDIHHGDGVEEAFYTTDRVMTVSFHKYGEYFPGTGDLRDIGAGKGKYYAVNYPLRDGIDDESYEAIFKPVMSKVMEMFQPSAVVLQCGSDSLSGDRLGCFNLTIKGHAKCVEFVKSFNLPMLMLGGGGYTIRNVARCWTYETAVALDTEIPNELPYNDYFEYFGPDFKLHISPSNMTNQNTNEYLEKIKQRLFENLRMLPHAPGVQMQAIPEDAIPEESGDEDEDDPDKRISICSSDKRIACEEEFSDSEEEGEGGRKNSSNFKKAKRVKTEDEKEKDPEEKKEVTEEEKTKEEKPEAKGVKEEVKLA
Sequence of rhHDAC 2 (Q92769 whole entry, canonical isoform): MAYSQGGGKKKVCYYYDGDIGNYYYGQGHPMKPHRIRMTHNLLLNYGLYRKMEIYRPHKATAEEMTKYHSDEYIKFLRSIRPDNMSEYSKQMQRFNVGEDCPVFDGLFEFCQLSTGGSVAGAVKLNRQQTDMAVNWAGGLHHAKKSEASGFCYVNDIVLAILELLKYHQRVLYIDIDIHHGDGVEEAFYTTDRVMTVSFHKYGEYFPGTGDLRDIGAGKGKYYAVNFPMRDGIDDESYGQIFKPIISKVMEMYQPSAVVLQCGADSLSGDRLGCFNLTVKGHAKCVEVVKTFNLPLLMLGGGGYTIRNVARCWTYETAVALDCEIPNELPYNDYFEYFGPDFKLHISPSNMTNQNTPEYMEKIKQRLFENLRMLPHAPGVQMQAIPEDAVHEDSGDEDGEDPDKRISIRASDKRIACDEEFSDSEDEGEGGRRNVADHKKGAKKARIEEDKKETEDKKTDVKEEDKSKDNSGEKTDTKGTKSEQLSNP
Sequence of rhHDAC 4 (P56524 whole entry, canonical isoform): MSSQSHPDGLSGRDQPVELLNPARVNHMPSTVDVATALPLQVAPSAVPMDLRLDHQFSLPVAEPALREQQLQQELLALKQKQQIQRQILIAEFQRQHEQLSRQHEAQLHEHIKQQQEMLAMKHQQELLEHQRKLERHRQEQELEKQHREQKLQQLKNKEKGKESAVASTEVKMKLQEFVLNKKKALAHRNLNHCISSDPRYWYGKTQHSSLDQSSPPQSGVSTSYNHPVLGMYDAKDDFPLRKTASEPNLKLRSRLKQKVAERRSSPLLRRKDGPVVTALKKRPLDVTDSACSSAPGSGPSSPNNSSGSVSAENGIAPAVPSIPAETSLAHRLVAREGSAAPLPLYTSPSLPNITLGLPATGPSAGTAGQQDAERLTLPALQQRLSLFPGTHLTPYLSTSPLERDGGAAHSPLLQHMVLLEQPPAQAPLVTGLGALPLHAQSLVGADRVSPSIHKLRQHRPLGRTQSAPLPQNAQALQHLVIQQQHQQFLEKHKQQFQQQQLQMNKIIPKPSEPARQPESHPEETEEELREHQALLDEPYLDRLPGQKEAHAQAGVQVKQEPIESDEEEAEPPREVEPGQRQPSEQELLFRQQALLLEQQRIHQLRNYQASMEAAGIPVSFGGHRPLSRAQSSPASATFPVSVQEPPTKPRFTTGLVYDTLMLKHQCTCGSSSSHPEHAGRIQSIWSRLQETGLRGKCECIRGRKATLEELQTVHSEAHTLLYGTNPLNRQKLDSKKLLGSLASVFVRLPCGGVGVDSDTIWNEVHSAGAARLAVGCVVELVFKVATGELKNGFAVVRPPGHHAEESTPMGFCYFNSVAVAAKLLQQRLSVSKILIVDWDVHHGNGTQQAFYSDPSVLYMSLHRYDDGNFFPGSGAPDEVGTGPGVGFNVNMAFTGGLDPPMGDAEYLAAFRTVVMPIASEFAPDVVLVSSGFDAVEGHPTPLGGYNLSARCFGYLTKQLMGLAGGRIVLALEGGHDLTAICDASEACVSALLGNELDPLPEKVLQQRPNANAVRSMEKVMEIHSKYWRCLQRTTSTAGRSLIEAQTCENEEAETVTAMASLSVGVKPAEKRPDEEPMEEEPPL

| Structure (SMILES) | IC50 (Trypanosoma brucei (BSF)) | IC90 (Trypanosoma brucei (BSF)) | IC50 (HDAC (FDL_HELA)) | IC50 (rhHDAC 1) | IC50 (rhHDAC 4) | IC50 (rhHDAC 2) | IC50 (rhHDAC 6) | IC50 (rhHDAC 9) | IC50 (rhHDAC 3) | IC50 (rhHDAC 8) |
| --- | --- | --- | --- | --- | --- | --- | --- | --- | --- | --- |
| COc1ccc2nc(/C=C/C(=O)NO)ccc2c1 [Compound 9] | 155 ± 18 nM | 310 ± 40 nM | 28 ± 4 nM |  |  |  |  |  |  |  |
| O=C(/C=C/c1cccc(S(=O)(=O)N2CCN(Cc3ccc4c(c3)OCO4)CC2)c1)NO [Compound 14] | 261 ± 38 nM | 485 ± 43 nM | 269 ± 87 nM |  |  |  |  |  |  |  |
| O=C(/C=C/c1cccc(S(=O)(=O)Nc2ccc(OC(F)(F)F)cc2)c1)NO [Compound 5] | 137 ± 7 nM | 220 ± 7 nM |  |  |  |  |  |  |  |  |
| O=C(/C=C/c1ccc2ccccc2n1)NO [Compound 16] | 353 ± 16 nM | 648 ± 20 nM | 22 nM |  |  |  |  |  |  |  |
| O=C(/C=C/c1ccc2c(c1)OCO2)NCCCCCC(=O)NO [Compound 21] | > 10000 nM |  | 29 ± 16 nM |  |  |  |  |  |  |  |
| O=C(/C=C/c1cccc(S(=O)(=O)Nc2ccc(Cl)cc2)c1)NO [Compound 17] | 368 ± 23 nM | 651 ± 83 nM | 42 ± 11 nM |  |  |  |  |  |  |  |
| COc1ccc(NS(=O)(=O)c2cccc(/C=C/C(=O)NO)c2)cc1OC [Compound 19] | 927 ± 57 nM | 2150 ± 140 nM | 23 ± 5 nM |  |  |  |  |  |  |  |

More lines, now with the values ahead:

| IC50 (Trypanosoma brucei (BSF)) | IC90 (Trypanosoma brucei (BSF)) | IC50 (HDAC (FDL_HELA)) | IC50 (rhHDAC 1) | IC50 (rhHDAC 4) | IC50 (rhHDAC 2) | IC50 (rhHDAC 6) | IC50 (rhHDAC 9) | IC50 (rhHDAC 3) | IC50 (rhHDAC 8) | Structure (SMILES) |
| --- | --- | --- | --- | --- | --- | --- | --- | --- | --- | --- |
| 167 ± 12 nM | 228 ± 2 nM | 132 ± 103 nM |  |  |  |  |  |  |  | O=C(/C=C/c1cccc(S(=O)(=O)N2CCN(c3ccccc3)CC2)c1)NO [Compound 11] |
| 156 ± 3 nM | 224 ± 3 nM | 212 ± 112 nM | 76 ± 6 nM | 870 nM | 36 ± 0.7 nM | 107 ± 13 nM | 1180 nM | 295 ± 290 nM | 955 ± 166 nM | COc1ccc(N2CCN(S(=O)(=O)c3cccc(/C=C/C(=O)NO)c3)CC2)cc1 [Compound 10] |
| 34 ± 2 nM | 66 ± 4 nM | 84 ± 53 nM |  |  |  |  |  |  |  | O=C(/C=C/c1cccc(S(=O)(=O)N2CCN(c3ncccn3)CC2)c1)NO [Compound 1] |
| 141 ± 9 nM | 224 ± 14 nM | 191 ± 36 nM |  |  |  |  |  |  |  | O=C(/C=C/c1cccc(S(=O)(=O)N2CCN(c3ccccc3F)CC2)c1)NO [Compound 6] |
| 198 ± 5 nM | 265 ± 5 nM | 22 ± 2 nM | 53 ± 3 nM |  | 310 ± 28 nM | 305 ± 19 nM | 145 ± 151 nM | 96 ± 46 nM | 328 ± 193 nM | COc1ccccc1N1CCN(S(=O)(=O)c2cccc(/C=C/C(=O)NO)c2)CC1 [Compound 12] |
